Experimental data as given in patent US5169844A, “4-substituted piperidinecarboxylic acid esters: inhibition of cholesterol absorption” (priority 1991, dated 1992).
Read-outs that look alike come from different tables or passages of the source.

How the values were obtained:
[1] = molecular target: T1, cholesterol esterase (EC 3.1.1.13) from bovine pancreas (CEH) (Bos taurus, UniProt P30122); assay: CEH inhibition (cholesteryl ester formation from cholesterol and oleic acid by buffered cholesterol esterase); assay type: biochemical
T1 construct: purchased Sigma Company, St. Louis, Mo., U.S.A. C-1892; host or cells: bovine pancreas
T1 sequence (P30122 19-597): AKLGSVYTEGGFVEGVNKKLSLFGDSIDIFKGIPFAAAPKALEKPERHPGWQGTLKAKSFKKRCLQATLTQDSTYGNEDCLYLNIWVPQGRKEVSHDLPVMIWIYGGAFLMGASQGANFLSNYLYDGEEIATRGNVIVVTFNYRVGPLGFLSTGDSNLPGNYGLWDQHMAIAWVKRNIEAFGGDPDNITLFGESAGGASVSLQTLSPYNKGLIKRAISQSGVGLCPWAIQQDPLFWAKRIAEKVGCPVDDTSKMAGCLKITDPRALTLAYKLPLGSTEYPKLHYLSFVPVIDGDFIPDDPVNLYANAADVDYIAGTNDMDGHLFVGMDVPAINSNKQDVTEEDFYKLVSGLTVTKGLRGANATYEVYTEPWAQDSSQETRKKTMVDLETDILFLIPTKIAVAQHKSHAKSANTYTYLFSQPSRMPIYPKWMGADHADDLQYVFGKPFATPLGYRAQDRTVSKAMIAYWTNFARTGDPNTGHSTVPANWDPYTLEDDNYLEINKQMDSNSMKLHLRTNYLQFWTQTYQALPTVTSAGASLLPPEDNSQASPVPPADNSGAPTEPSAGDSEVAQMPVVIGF
Protocol: 2. The ability of the compounds of this invention to inhibit the formation of cholesteryl esters and thereby interfere with and prevent assimilation of cholesterol into the lymphatic system and ultimately the blood stream was established by incubating the compounds at 37° C. with a mixture of cholesterol and oleic acid in the presence of buffered cholesterol esterase [(EC 3.1.1.13) Sigma Company, St. Louis, Mo., U.S.A., No. C-1892, from bovine pancreas] and measuring the amount of ester formed, according to the procedure of Field, J. of Lipid Research, 25 389 (1984).

[2] = tested on: Absorption of 14C-cholesterol in normal rat; assay: In vivo cholesterol absorption, oral [4-14C] cholesterol, normal rats; settings: read-out: Effect on Absorption of 14C-Chol., % Decrease
Protocol: The in vivo cholesterol absorption studies were conducted in normal rats by oral administration of the compound being tested in propylene glycol and olive oil followed by oral administration of [4-^14 C] cholesterol in propylene glycol and olive oil, otherwise following the procedure of Cayen et al., J. Lipid Res. 20 162 (1979). The serum radioactivity was measured at six hours after dosing. The results of this study are reported in the following table, where available, as percent decrease compared to control and in terms of the effective dose (ED50) inhibiting fifty-percent of the absorption of the control animals.

[3] = tested on: acyl-coenzyme A: cholesterol acyltransferase (ACAT); assay: ACAT inhibition (intracellular cholesterol esterification, procedure of Ross et al.); assay type: cell-based; settings: for IC50: read-out: ACAT IC50
Description: 1. The ability of the compounds of this invention to inhibit acyl-coenzyme A: cholesterol acyltransferase was established by initially showing that they inhibited intracellular cholesterol esterification by subjecting them to the standard experimental test procedure of Ross et al., J. Biol. Chem. 259, 815 (1984).

[4] = 37° C., bovine pancreas enzyme, read-out: CEH IC50
[5] = normal rat, oral, 6 hr, serum radioactivity vs control
[6] = normal rat, oral, 6 hr, 10 mg/kg, serum radioactivity vs control

For `CCCCCCCC/C=C\CCCCCCCCNC(=O)OC1CCN(C(=O)Oc2ccc(Oc3ccccc3)cc2)CC1` [Example 14], the IC50 [1, 4] was 43 µM and the inhibition in vivo at 25 mg/kg [2, 5] was 21%.
With `O=C(Oc1ccc(Oc2ccccc2)cc1)N1CCC(OC(=O)N2CCC(c3ccccc3)CC2)CC1` [Example 16, 4-Phenyl-1-piperidinecarboxylic acid 1-[(4-phenoxyphenoxy)carbonyl]-4-piperidinyl ester] the “ACAT % inhibition at 25 μM” value [3] was 91%, the IC50 [3] was 0.51 µM and the IC50 [1, 4] was 12 µM. It also gave an inhibition in vivo at 10 mg/kg [2, 6] of 48%.
`CCCCCCNC(=O)OC1CCN(C(=O)Oc2ccc(Oc3ccc(OC)cc3)cc2)CC1` [Example 19, 4-[[(Hexylamino)carbonyl]oxy]-1-piperidinecarboxylic acid 4-(4-methoxyphenoxy)phenyl ester] showed an IC50 [1, 4] of 2.8 µM and an inhibition in vivo at 10 mg/kg [2, 6] of 29%.
With `CCCCCCNC(=O)OC1CCN(C(=O)Oc2ccc(Oc3ccccc3)cc2)CC1` [Example 3, 4-[[(Hexylamino)carbonyl]oxy]-1-piperidinecarboxylic acid 4-phenoxyphenyl ester] the “ACAT % inhibition at 25 μM” value [3] was 94%, the IC50 [3] was 0.64 µM and the IC50 [1] was 9.8 µM. The inhibition in vivo at 10 mg/kg ([2]; Rattus norvegicus, po, 6 h) was 85%.
For `O=C(NCC1CCCCC1)OC1CCN(C(=O)Oc2ccc(Oc3ccccc3)cc2)CC1` [Example 17, 4-[[[(Cyclohexylmethyl)amino]carbonyl]oxy]-1-piperidinecarboxylic acid 4-phenoxyphenyl ester], the “ACAT % inhibition at 25 μM” value [3] was 97%, the IC50 [3] was 0.49 µM and the IC50 [1, 4] was 19 µM. It also gave an inhibition in vivo at 3 mg/kg ([2]; normal rat, oral, 6 hr, 3 mg/kg, serum radioactivity vs control) of 68%.
`CCCCCCCCNC(=O)OC1CCN(C(=O)Oc2ccc(Oc3ccccc3)cc2)CC1` [Example 4, 4-[[(Octylamino)carbonyl]oxy]-1-piperidinecarboxylic acid 4-phenoxyphenyl ester] was tested, and the “ACAT % inhibition at 25 μM” value [3] was 94%, the IC50 [3] was 0.82 µM and the IC50 [1, 4] was > 100 µM. The inhibition in vivo at 100 mg/kg ([2]; normal rat, oral, 6 hr, 100 mg/kg, serum radioactivity vs control) was 92%.
With `CCN(CC)C(=O)OC1CCN(C(=O)Oc2ccc(Oc3ccccc3)cc2)CC1` [Example 12, 4-[[(Diethylamino)carbonyl]oxy]-1-piperidinecarboxylic acid 4-phenoxyphenylester] the “ACAT % inhibition at 25 μM” value [3] was 93%, the IC50 [3] was 1.37 µM and the IC50 [1] was 11.4 µM.
Compound `CNC(=O)OC1CCN(C(=O)Oc2ccc(Oc3ccccc3)cc2)CC1` [Example 11, 4-[[(Methylamino)carbonyl]oxy]-1-piperidinecarboxylic acid 4-phenoxyphenyl ester] has an IC50 [1] of 2.1 µM.
Compound `CC1CCN(C(=O)OC2CCN(C(=O)Oc3ccc(Oc4ccccc4)cc3)CC2)CC1` [Example 9] has an IC50 [1, 4] of 1.1 µM.
For `CCCCCCNC(=O)OC1CCN(C(=O)Oc2ccc(Oc3ccc(C)cc3)cc2)CC1` [Example 18, 4-[[(Hexylamino)carbonyl]oxy]-1-piperidinecarboxylic acid 4-(4-methylphenoxy)phenyl ester], the IC50 [1, 4] was 2 µM and the inhibition in vivo at 10 mg/kg [2, 6] was 25%.
`CCCCCCCN(Cc1ccc(CC(C)(C)C)cc1)C(=O)OC1CCN(C(=O)Oc2ccc(Oc3ccccc3)cc2)CC1` [Example 10, 4-[[[[[4-(2,2-Dimethylpropyl)phenyl]methyl]heptylamino]carbonyl]oxy]-1-piperidinecarboxylic acid 4-phenoxyphenyl ester] was tested, and the “ACAT % inhibition at 25 μM” value [3] was 84%, the IC50 [3] was 3.3 µM and the IC50 [1, 4] was > 100 µM.
For `O=C(NCCCCc1ccccc1)OC1CCN(C(=O)Oc2ccc(Oc3ccccc3)cc2)CC1` [Example 13, 4-[[[(4-Phenylbutyl)amino]carbonyl]oxy]-1-piperidinecarboxylic acid 4-phenoxyphenyl ester], the “ACAT % inhibition at 25 μM” value [3] was 96%, the IC50 [3] was 0.23 µM and the IC50 [1, 4] was 5 µM. It also gave an inhibition in vivo at 10 mg/kg [2, 6] of 41%.
Work on `O=C(Oc1ccc(Oc2ccccc2)cc1)N1CCC(OC(=O)N2CCSCC2)CC1` [Example 15, 4-Thiomorpholinecarboxylic acid 1-[(4-phenxoyphenoxy)carbonyl]-4-piperidinyl ester] yielded an IC50 [1, 4] of 79 µM.
For `CCCCCCCCCCCCNC(=O)OC1CCN(C(=O)Oc2ccc(Oc3ccccc3)cc2)CC1` [Example 6, 4-[[(Dodecylamino)carbonyl]oxy]-1-piperidinecarboxylic acid 4-phenoxyphenylester], the “ACAT % inhibition at 25 μM” value [3] was 88%, the IC50 [3] was 0.51 µM and the IC50 [1, 4] was 16 µM. For the same compound, the inhibition in vivo at 10 mg/kg [2, 6] was 57%.
For `O=C(NC1CCCCC1)OC1CCN(C(=O)Oc2ccc(Oc3ccccc3)cc2)CC1` [Example 5, 4-[[(Cyclohexylamino)carbonyl]oxy]-1-piperidinecarboxylic acid 4-phenoxyphenyl ester], the “ACAT % inhibition at 25 μM” value [3] was 92%, the IC50 [3] was 1.68 µM and the IC50 [1, 4] was 9.5 µM. The inhibition in vivo at 10 mg/kg [2, 6] was 89%.
`CCCCNC(=O)OC1CCN(C(=O)Oc2ccc(Oc3ccccc3)cc2)CC1` [Example 2, 4-[[(Butylamino)carbonyl]oxy]-1-piperidinecarboxylic acid 4-phenoxyphenyl ester] was tested, and the “ACAT % inhibition at 25 μM” value [3] was 96%, the IC50 [3] was 2 µM and the IC50 [1] was 2.3 µM.
`CC(C)CCCC(C)NC(=O)OC1CCN(C(=O)Oc2ccc(Oc3ccccc3)cc2)CC1` (stereo not shown) [Example 8, 4-[[[(1,5-Dimethylhexyl)amino]carbonyl]oxy]-1-piperidinecarboxylic acid 4-phenoxyphenyl ester] was tested, and the IC50 [1, 4] was 13 µM.
With `CCCCCCCCCCCCCCCCCCNC(=O)OC1CCN(C(=O)Oc2ccc(Oc3ccccc3)cc2)CC1` [Example 7, 4-[[(Octadecylamino)carbonyl]oxy]-1-piperidinecarboxylic acid 4-phenoxyphenyl ester] the IC50 [1, 4] was > 100 µM and the inhibition in vivo at 25 mg/kg [2, 5] was 28%.
